Data: patent US8093234B2, “Method of increasing thymic output in HIV-negative patients by treatment with antiretroviral agents” (Mayo Foundation For Medical Education and Research, priority 2005, dated 2012)
Several values for one entry are separate records, joined by “and”; a condition that tells them apart may be missing. Equal values may be shown once. Entries after “also recorded” stand apart in the source; their conditions may differ.

Experiments:
Kaposi's sarcoma = settings: mice implanted with Kaposi's sarcoma; cited from earlier work
[1] = test system: adult T-cell leukemia cells; settings: NOD/SCID mice implanted with adult T-cell leukemia cells; cited from earlier work
[2] = test system: thymic derived naïve T-cell numbers in the peripheral blood; assay: TREC analysis (sjTREC/CCR5 real-time PCR) of peripheral blood in HIV-negative volunteers on nelfinavir mono-therapy; type: in vivo, human
Experimental: (§1) Following approval by the Mayo Institutional Review Board, peripheral blood was sampled from 46 healthy blood donors older than 18 years of age for baseline TREC analysis. For the separate nelfinavir trial, 15 HIV-negative individuals with no active illness older than 18 years of age were given nelfinavir, 1250 mg orally, twice a day for 21 days. Blood for TREC analysis was obtained before therapy and on days 3, 5, 7, 14, and 21 after starting therapy. At each blood draw, side-effects were monitored and recorded from each subject. Severity of diarrhea was graded as: Grade 0—None; Grade 1—increase of 4 stools/day over pretreatment; Grade 2—increase of 4-6 stools/day, or nocturnal stools; Grade 3—increase of 7 stools/day or incontinence, or dehydration episode requiring parenteral support; Grade 4—episode of hemodynamic collapse requiring intensive care.
TREC Analysis: DNA was isolated from peripheral blood mononuclear cells (PBMC) using an QIAamp Blood Mini DNA Kit (Qiagen) and assessed for signal joint (sj) TREC content relative to genomic CCR5 copies by real-time PCR in a spectroflourometric thermal cycler (ABI PRISM 7700 or 7900, PE Applied Biosystems). SjTREC reactions contained 12.5 pmol primers (forward […] [SEQ ID NO:1]), reverse […] [SEQ ID NO:2]) 3 pmoles TAQMAN probe (FAM-[…]-TAMRA [SEQ ID NO:3]), 1× TAQMAN Universal PCR Master Mix (PE Applied Biosystems), and 50 to 400 ng of template DNA in a total volume of 25 μl. CCR5 reactions contained 12.5 pmol primers (forward […] [SEQ ID NO:4], and reverse […] [SEQ ID NO:5]), 3 pmoles TAQMAN probe (FAM-[…]-TAMRA [SEQ ID NO:6]),1× TAQMAN Universal PCR Master Mix, and 50-400 ng of template of genomic DNA in a total volume of 25 μl. Thermal cycling conditions consisted of a 2-minute incubation at 50° C. and an initial denaturation/activation step at 95° C. for 10 minutes, followed by 40 cycles of 95° C. for 15 seconds and 60° C. for 1 minute in a microplate format. For each plate of reactions, standard curves were generated with 1-100,000 copies of human sjTREC plasmid (provided by Dr. D. Douek, NIH) and human CCR5 plasmid (cloned by RT-PCR into pCI) in order to calculate copies of TREC versus CCR5.
Statistical analysis: Experiments from every figure were performed in duplicate and repeated at least twice. All measurements are presented as means and standard deviations with statistical comparisons made between baseline and day 21 TREC/CCR5 measurements using the Student's t test for paired observations. For FIG. 2, change in baseline to day 21 TREC/CCR5 levels were stratified according to subjects age with 2 subjects <40, 2 subjects 40-65, and 11 subjects >65 years old.

[3] = Side-effect monitoring in the nelfinavir trial in HIV-negative individuals; type: in vivo, human
Experimental: as §1

SMILES	tumor response (Kaposi's sarcoma)	tumor growth [1]	volunteers who did not increase TREC numbers following 21 days ([2]; 15 subjects, 21 days)	volunteers who responded with increases in TREC numbers from baseline to day 21 ([2]; 15 subjects, 21 days)	effect on TREC levels / TREC positive naïve T-cell number ([2]; HIV-negative adults, mono-therapy for 21 days)	median increase in TRECs from baseline to day 21 in responders ([2]; eight responding volunteers, p<0.02) [copies TREC/CCR5]	change between baseline and day 21 TREC/CCR5 levels ([2]; entire cohort analyzed)	Day 21/0 TREC ([2]; individual subjects 1-15, nelfinavir 1250 mg orally twice a day for 21 days)	patients in whom TREC copies/copies CCR5 increased ([2]; of 15 subjects, p<0.02) [patients]	patients in whom TREC copies/copies CCR5 did not change ([2]; of 15 subjects, p=NS) [patients]	change in TREC levels between baseline (day 0) and days 3, 5, 7 or 14 ([2]; paired analysis)	average increase in TREC levels ([2]; subjects 40-65 years) [TREC/CCR5 copies]	average change in TREC levels ([2]; subjects greater than 65 years) [TREC/CCR5 copies]	average increase in TREC levels ([2]; subjects less than 40 years) [TREC/CCR5 copies]	clinical tolerability ([3]; 1250 mg orally twice a day for 21 days)	subjects who completed the 21 days of therapy ([3]; 15 subjects)	subjects who experienced Grade 1 or 2 diarrhea ([3]; six of 15 subjects) [%]
CC(C)c1nc(CN(C)C(=O)N[C@H](C(=O)N[C@@H](Cc2ccccc2)C[C@H](O)[C@H](Cc2ccccc2)NC(=O)OCc2cncs2)C(C)C)cs1 [Ritonavir]	significant tumor regression	reduced tumor growth															
Cc1c(O)cccc1C(=O)N[C@@H](CSc1ccccc1)[C@H](O)CN1C[C@H]2CCCC[C@H]2C[C@H]1C(=O)NC(C)(C)C [nelfinavir]			47 % of total	53 % of total	induces an increase in TREC levels in a subset of healthy adults; also recorded: increases TREC positive naïve T-cell number	1.2	no change	0.74 and 1.18 and 0.24 and 1.25 and 1.01 and 0.72 and 1.0 and 1.36 and 1.06 and 2.32 and 1.88 and 0.59 and 0.29 and 0.38 and 0.55	8	7	No significant change	0.80	0.89	1.2	clinically well tolerated	all but one subject	40
